# According to patent publication US20200024278A1, “COMPOSITION COMPRISING ANTIBIOTIC COMPOUND AND AN HETEROCYCLIC COMPOUND AND THEIR USE IN PREVENTING OR TREATING BACTERIAL INFECTIONS” (MUTABILIS, priority 2016, published 2020):
# Like-named read-outs stand apart in the source and are kept apart here.
# How the values were obtained:
# Assay in all cases: MIC, broth microdilution (CLSI), substance alone or ATB combined with compound at 4 or 8 μg/mL
# KPN UFR42 = type: cell-based, K. pneumoniae; settings: KPN UFR42
# Method in brief: (§1)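 CLSI M7-A7 broth microdilution. ca-MHB, 5·10^5 CFU/mL log-phase cells, 16-20 h, 35° C, ambient air. Fosfomycin wells + 25 μg/ml glucose-6-phosphate. Visual MIC read.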
# KPN 6299 = type: cell-based, K. pneumoniae
# Method in brief: as §1
# KPN BAA-1898 = type: cell-based, K. pneumoniae; settings: KPN BAA-1898
# Method in brief: as §1
# SAU 29213 = type: cell-based, S. aureus; settings: SAU 29213
# Method in brief: as §1
# PAE UFR90 = type: cell-based, P. aeruginosa; settings: PAE UFR90; for MIC: Pseudomonas aeruginosa
# Method in brief: as §1
# PAE UFR48 = type: cell-based, P. aeruginosa; settings: PAE UFR48
# Method in brief: as §1
# [1] = Klebsiella pneumoniae, antibiotic alone, read-out: MIC ATB alone
smiles,measurement,setting,value
"NCC[C@H](O)C(=O)N[C@@H]1C[C@H](N)[C@@H](O[C@H]2O[C@H](CN)[C@@H](O)[C@H](O)[C@H]2O)[C@H](O)[C@H]1O[C@H]1O[C@H](CO)[C@@H](O)[C@H](N)[C@H]1O [AN, Amikacin, reference compound]",MIC ATB combined with Example 1 @8 μg/ml,KPN UFR42; with Example 1 @8 μg/ml,>32 µg/mL
same,MIC ATB combined with Example 1 @8 μg/ml,KPN UFR42; with Example 1 at 8 μg/ml,>32 µg/mL
same,MIC ATB combined with Example 7 @8 μgml,KPN UFR42; with Example 7 at 8 μg/ml,>32 µg/mL
same,MIC ATB combined with Example 9 @4 μg/ml,KPN UFR42; with Example 9 @4 μg/ml,>32 µg/mL
same,MIC ATB combined with Example 9 @4 μg/ml,KPN UFR42; with Example 9 at 4 μg/ml,>32 µg/mL
same,MIC ATB combined with Example 11 @8 μg/ml,KPN UFR42; with Example 11 at 8 μg/ml,0.25 µg/mL
same,MIC ATB combined with Example 12 @8 μg/ml,KPN UFR42; with Example 12 at 8 μg/ml,<0.031 µg/mL
same,MIC ATB combined with Example 13 @8 μg/ml,KPN UFR42; with Example 13 at 8 μg/ml,>32 µg/mL
same,MIC ATB combined with Example 14 @8 μg/ml,KPN UFR42; with Example 14 at 8 μg/ml,<0.031 µg/mL
same,MIC ATB combined with Example 15 @4 μgml,KPN UFR42; with Example 15 at 4 μg/ml,>32 µg/mL
same,MIC ATB combined with Example 16 @4 μg/ml,KPN UFR42; with Example 16 at 4 μg/ml,<0.031 µg/mL
same,MIC,KPN UFR42; [1],> 32 µg/mL
same,MIC,KPN 6299; [1],16 µg/mL
same,MIC ATB combined with Example 1 @8 μg/ml,KPN 6299; with Example 1 @8 μg/ml,16 µg/mL
same,MIC ATB combined with Example 1 @8 μg/ml,KPN 6299; with Example 1 at 8 μg/ml,16 µg/mL
same,MIC ATB combined with Example 7 @8 μgml,KPN 6299; with Example 7 at 8 μg/ml,2 µg/mL
same,MIC ATB combined with Example 9 @4 μg/ml,KPN 6299; with Example 9 @4 μg/ml,<0.031 µg/mL
same,MIC ATB combined with Example 9 @4 μg/ml,KPN 6299; with Example 9 at 4 μg/ml,<0.031 µg/mL
same,MIC ATB combined with Example 11 @8 μg/ml,KPN 6299; with Example 11 at 8 μg/ml,<0.031 µg/mL
same,MIC ATB combined with Example 12 @8 μg/ml,KPN 6299; with Example 12 at 8 μg/ml,<0.031 µg/mL
same,MIC ATB combined with Example 13 @8 μg/ml,KPN 6299; with Example 13 at 8 μg/ml,4 µg/mL
same,MIC ATB combined with Example 14 @8 μg/ml,KPN 6299; with Example 14 at 8 μg/ml,<0.031 µg/mL
same,MIC ATB combined with Example 15 @4 μgml,KPN 6299; with Example 15 at 4 μg/ml,<=0.031 μg/mL
same,MIC ATB combined with Example 16 @4 μg/ml,KPN 6299; with Example 16 at 4 μg/ml,<0.031 µg/mL
same,MIC ATB combined with Example 1 @8 μg/ml,KPN BAA-1898; with Example 1 @8 μg/ml,0.25 µg/mL
same,MIC ATB combined with Example 1 @8 μg/ml,KPN BAA-1898; with Example 1 at 8 μg/ml,0.25 µg/mL
same,MIC ATB combined with Example 7 @8 μgml,KPN BAA-1898; with Example 7 at 8 μg/ml,0.125 µg/mL
same,MIC ATB combined with Example 9 @4 μg/ml,KPN BAA-1898; with Example 9 @4 μg/ml,<0.031 µg/mL
same,MIC ATB combined with Example 9 @4 μg/ml,KPN BAA-1898; with Example 9 at 4 μg/ml,<0.031 µg/mL
same,MIC ATB combined with Example 11 @8 μg/ml,KPN BAA-1898; with Example 11 at 8 μg/ml,<0.031 µg/mL
same,MIC ATB combined with Example 12 @8 μg/ml,KPN BAA-1898; with Example 12 at 8 μg/ml,<0.031 µg/mL
same,MIC ATB combined with Example 13 @8 μg/ml,KPN BAA-1898; with Example 13 at 8 μg/ml,0.25 µg/mL
same,MIC ATB combined with Example 14 @8 μg/ml,KPN BAA-1898; with Example 14 at 8 μg/ml,<0.031 µg/mL
same,MIC ATB combined with Example 15 @4 μgml,KPN BAA-1898; with Example 15 at 4 μg/ml,<=0.031 μg/mL
same,MIC ATB combined with Example 16 @4 μg/ml,KPN BAA-1898; with Example 16 at 4 μg/ml,<0.031 µg/mL
same,MIC,"KPN BAA-1898; Klebsiella pneumoniae, BAA1898, antibiotic alone, read-out: MIC ATB alone",1 µg/mL
same,MIC ATB combined with Example 1 @8 μg/ml,SAU 29213; with Example 1 @8 μg/ml,4 µg/mL
same,MIC ATB combined with Example 1 @8 μg/ml,SAU 29213; with Example 1 at 8 μg/ml,4 µg/mL
same,MIC ATB combined with Example 7 @8 μgml,SAU 29213; with Example 7 at 8 μg/ml,2 µg/mL
same,MIC ATB combined with Example 9 @4 μg/ml,SAU 29213; with Example 9 @4 μg/ml,<0.031 µg/mL
same,MIC ATB combined with Example 9 @4 μg/ml,SAU 29213; with Example 9 at 4 μg/ml,<0.031 µg/mL
same,MIC ATB combined with Example 11 @8 μg/ml,SAU 29213; with Example 11 at 8 μg/ml,<0.031 µg/mL
same,MIC ATB combined with Example 12 @8 μg/ml,SAU 29213; with Example 12 at 8 μg/ml,<0.031 µg/mL
same,MIC ATB combined with Example 13 @8 μg/ml,SAU 29213; with Example 13 at 8 μg/ml,4 µg/mL
same,MIC ATB combined with Example 14 @8 μg/ml,SAU 29213; with Example 14 at 8 μg/ml,<0.031 µg/mL
same,MIC ATB combined with Example 15 @4 μgml,SAU 29213; with Example 15 at 4 μg/ml,<0.031 µg/mL
same,MIC ATB combined with Example 16 @4 μg/ml,SAU 29213; with Example 16 at 4 μg/ml,<0.031 µg/mL
same,MIC,"SAU 29213; Staphylococcus aureus, antibiotic alone, read-out: MIC ATB alone",2 µg/mL
same,MIC ATB combined with Example 1 @8 μg/ml,PAE UFR90; with Example 1 @8 μg/ml,<0.031 µg/mL
same,MIC ATB combined with Example 1 @8 μg/ml,PAE UFR90; with Example 1 at 8 μg/ml,<0.031 µg/mL
same,MIC ATB combined with Example 7 @8 μgml,PAE UFR90; with Example 7 at 8 μg/ml,2 µg/mL
same,MIC ATB combined with Example 9 @4 μg/ml,PAE UFR90; with Example 9 @4 μg/ml,2 µg/mL
same,MIC ATB combined with Example 9 @4 μg/ml,PAE UFR90; with Example 9 at 4 μg/ml,2 µg/mL
same,MIC ATB combined with Example 11 @8 μg/ml,PAE UFR90; with Example 11 at 8 μg/ml,2 µg/mL
same,MIC ATB combined with Example 12 @8 μg/ml,PAE UFR90; with Example 12 at 8 μg/ml,2 µg/mL
same,MIC ATB combined with Example 13 @8 μg/ml,PAE UFR90; with Example 13 at 8 μg/ml,2 µg/mL
same,MIC ATB combined with Example 14 @8 μg/ml,PAE UFR90; with Example 14 at 8 μg/ml,2 µg/mL
same,MIC ATB combined with Example 15 @4 μgml,PAE UFR90; with Example 15 at 4 μg/ml,2 µg/mL
same,MIC ATB combined with Example 16 @4 μg/ml,PAE UFR90; with Example 16 at 4 μg/ml,2 µg/mL
same,MIC,"PAE UFR90; antibiotic alone, read-out: MIC ATB alone",2 µg/mL
same,MIC,"PAE UFR90; substance alone, read-out: MIC",2 µg/mL
same,MIC ATB combined with Example 1 @8 μg/ml,PAE UFR48; with Example 1 @8 μg/ml,<0.031 µg/mL
same,MIC ATB combined with Example 1 @8 μg/ml,PAE UFR48; with Example 1 at 8 μg/ml,<0.031 µg/mL
same,MIC ATB combined with Example 7 @8 μgml,PAE UFR48; with Example 7 at 8 μg/ml,32 µg/mL
same,MIC ATB combined with Example 9 @4 μg/ml,PAE UFR48; with Example 9 @4 μg/ml,32 µg/mL
same,MIC ATB combined with Example 9 @4 μg/ml,PAE UFR48; with Example 9 at 4 μg/ml,32 µg/mL
same,MIC ATB combined with Example 11 @8 μg/ml,PAE UFR48; with Example 11 at 8 μg/ml,>32 µg/mL
